The text below walks through data of patent publication US6495592B1, “Tracheal smooth muscle relaxants” (Nippon Suisan Kaisha, Ltd., priority 1996, dated 2002).

One experiment has as its system tracheal smooth muscle. The experiment in a line: Dilating action to contraction of tracheal smooth muscle (potassium chloride-induced contraction of isolated trachea segment, Magnus tube). The format is cell-based. As to conditions: 30 μM test substance; contraction induced by 72.7 mM potassium chloride; guinea pig (Hartley, male) trachea segment. On the procedure: Each sample is tested by using two segment obtained from one animal; the trachea was removed from a guinea pig (Hartley, male, seven weeks age) and was made the segment, 6 mm in length. The segment was suspended in a Magnus tube containing a physiological salt solution of 37° C. with a flow of mixed gas consisting of 95% oxygen and 5% carbon dioxide gas. A base-line tension of 1 g was applied to the segment and, after tension of the sample became stable, the solution was exchanged with a solution containing 72.7 mM of potassium chloride to induce a contraction. When tension of the contraction by potassium chloride became stable, a compound of the formula (1) was added as a test substance to measure the change in the tension. The test substance was dissolved in dimethyl sulfoxide and added thereto. Incidentally, at the stage of addition, the final concentration of dimethyl sulfoxide was made not more than 0.3%. Changes in the tension was recorded on a recorder (R-64V, Rika Denki) after introducing to an amplifier for strain pressure (AP-621G, Nippon Koden Kogyo) via an FD pickup transducer (TB-611T, Nippon Koden Kogyo). Tension before addition of potassium chloride was set as 0 while that after addition of potassium chloride was set as 100 and the suppressing rate for contraction by potassium chloride after addition of the test substance was expressed by a relative percentage whereby the activity was determined according to the following criteria.
The Compound No. in the table is the same as that in the Production Examples.
On to “2-thiomethyl-7,9-dihydroxy-10,11-dihydrodibenzo[b,f]oxepin-10-one S-oxide [Compound 109]”, for which the “Activity (suppressing rate for contraction by potassium chloride)” value was “− (no suppressing action of not less than 50% was achieved at 30 μM)”.

The experiment is the same for the next values; noted with them: Cavia porcellus; 30 μM test substance; contraction induced by 72.7 mM potassium chloride; guinea pig (Hartley, male) trachea segment; read-out: Activity (suppressing rate for contraction by potassium chloride).
Take `O=C1Cc2cc(C(F)(F)F)ccc2Oc2cc(O)cc(O)c21` [Compound 38, 7,9-dihydroxy-2-trifluoromethyl-10,11-dihydrodibenz[b,f]oxepin-10-one]: the inhibition at 30 µM was no less than 50%. The same measure, in the same setting: the same measure for `Oc1cc2c(cc1O)Oc1ccccc1CC2` [Compound 14, 10,11-dihydrodibenz[b,f]oxepin-2,3-diol]: no more than 50%; for `CC(=O)c1c(O)cc(O)c2c1Oc1ccccc1CC2` [Compound 47, 4-acetyl-10,11-dihydrodibenz[b,f]oxepin-1,3-diol]: no less than 50%. On the same count and under the same terms, the same measure for `Oc1cc2c(cc1O)Sc1ccccc1CC2` [Compound 44, 10,11-dihydrodibenz[b,f]thiepin-2,3-diol]: no less than 50%; for `Oc1cc(O)c2c(c1)Oc1cc(Cl)ccc1CC2` [Compound 16, 7-chloro-10,11-dihydrodibenz[b,f]oxepin-1,3-diol]: no more than 50%; for `O=C1Cc2ccccc2Oc2c(O)c(O)cc(O)c21` [Compound 2, 6,7,9-trihydroxy-10,11-dihydrodibenz[b,f]oxepin-10-one]: no more than 50%. On to `O=C1Cc2ccc(F)cc2Oc2cc(O)cc(O)c21` [Compound 23, 3-fluoro-7,9-dihydroxy-10,11-dihydrodibenz[b,f]oxepin-10-one], for which the inhibition at 30 µM was no less than 50%.

Take `O=C1Cc2ccc(Cl)cc2Oc2cc(O)cc(O)c21` [Compound 15, 3-chloro-7,9-dihydroxy-10,11-dihydrodibenz[b,f]oxepin-10-one]: the inhibition at 30 µM was no less than 50%. Turning to `O=C1Cc2cc(O)c(O)cc2Oc2cc(O)cc(O)c21` [Compound 40, 2,3,7,9-tetrahydroxy-10,11-dihydrodibenz[b,f]oxepin-10-one], the inhibition at 30 µM is no more than 50%. Same read-out and setting: under `Nc1ccc2c(c1)CCc1c(O)cc(O)cc1O2` [Compound 77, 8-amino-10,11-dihydrodibenz[b,f]oxepin-1,3-diol] stands no more than 50%; under `O=C1Cc2cc(Cl)ccc2Oc2cc(O)cc(O)c21` [Compound 19, 2-chloro-7,9-dihydroxy-10,11-dihydrodibenz[b,f]oxepin-10-one], no less than 50%; under `Oc1cc(O)c2c(c1)Oc1c(ccc(Cl)c1Cl)CC2` [Compound 28, 6,7-dichloro-10,11-dihydrodibenz[b,f]oxepin-1,3-diol], no more than 50%. With `Oc1cc(O)c2c(c1)Oc1ccc(Cl)cc1CC2` [Compound 20, 8-chloro-10,11-dihydrodibenz[b,f]oxepin-1,3-diol], the inhibition at 30 µM was no more than 50%. On the same count and under the same terms, the same measure for `CC(C)c1ccc2c(c1)CC(=O)c1cc(O)c(O)cc1S2` [Compound 106, 7,8-dihydroxy-2-(2-propyl)-10,11-dihydrodibenzo[b,f]thiepin-10-one]: no less than 50%; for `CCc1ccc2c(c1)CC(=O)c1c(O)cc(OC)cc1O2` [Compound 111, 2-ethyl-9-hydroxy-7-methoxy-10,11-dihydrodibenzo[b,f]oxepin-10-one]: no less than 50%. Same read-out and setting: the same measure for `O=C1Cc2c(F)cccc2Oc2cc(F)c(F)cc21` [Compound 63, 1,7,8-trifluoro-10,11-dihydrodibenz[b,f]oxepin-10-one]: no less than 50%; for `CC(=O)c1c(O)cc(O)c2c1Sc1ccccc1CC2` [Compound 85, 4-acetyl-10,11-dihydrodibenzo[b,f]thiepin-1,3-diol]: no less than 50%. On the same count and under the same terms, under `O=C1Cc2cccc(Cl)c2Oc2cc(O)cc(O)c21` [Compound 36, 4-chloro-7,9-dihydroxy-10,11-dihydrodibenz[b,f]oxepin-10-one] stands no less than 50%; under `O=C1Cc2ccccc2Oc2c1ccc(O)c2O` [Compound 8, 6,7-dihydroxy-10,11-dihydrodibenz[b,f]oxepin-10-one], no more than 50%. Take `CC(=O)c1ccc2c(c1)C=Cc1cc(O)c(O)cc1S2` [Compound 92, 8-acetyldibenzo[b,f]thiepin-2,3-diol]: the inhibition at 30 µM was no less than 50%. Still for that read-out and setting: under `CC(O)c1ccc2c(c1)CCc1c(O)cc(O)cc1O2` (stereo not shown) [Compound 96, 8-(1-hydroxyethyl)-10,11-dihydrodibenzo[b,f]oxepin-1,3-diol] stands no less than 50%. On to `Oc1cc(O)c2c(c1)Oc1cc(F)ccc1CC2` [Compound 24, 7-fluoro-10,11-dihydrodibenz[b,f]oxepin-1,3-diol], for which the inhibition at 30 µM was no less than 50%. Take `CCc1ccc2c(c1)CC(=O)c1c(O)cc(O)cc1O2` [Compound 112, 2-ethyl-7,9-dihydroxy-10,11-dihydrodibenzo[b,f]oxepin-10-one]: the inhibition at 30 µM is no less than 50%.

In the case of `Oc1cc(O)c2c(c1)Oc1ccc(F)cc1CC2` [Compound 30, 8-fluoro-10,11-dihydrodibenz[b,f]oxepin-1,3-diol], the inhibition at 30 µM is no less than 50%. The same measure, in the same setting: the same measure for `O=C1Cc2cc(F)ccc2Oc2cc(O)cc(O)c21` [Compound 29, 2-fluoro-7,9-dihydroxy-10,11-dihydrodibenz[b,f]oxepin-10-one]: no less than 50%; for `O=C1Cc2ccccc2Oc2cc(O)c(O)cc21` [Compound 13, 7,8-dihydroxy-10,11-dihydrodibenz[b,f]oxepin-10-one]: no more than 50%. Turning to `Oc1cc(O)c2c(c1)Oc1c(Cl)cccc1CC2` [Compound 37, 6-chloro-10,11-dihydrodibenz[b,f]oxepin-1,3-diol], the inhibition at 30 µM was no less than 50%.

As to `O=C(O)Cc1ccc2c(c1)CCc1c(O)cc(O)cc1O2` [Compound 97, 7,9-dihydroxy-10,11-dihydrodibenzo[b,f]oxepin-2-acetic acid], the inhibition at 30 µM is no more than 50%.

In the case of `CCC(=O)c1c(O)c2c(c(C(=O)CC)c1O)Sc1ccccc1CC2` [Compound 89, 2,4-dipropionyl-10,11-dihydrodibenzo[b,f]thiepin-1,3-diol], the inhibition at 30 µM is no less than 50%. With `O=C1Cc2c(F)cccc2Oc2cc(O)cc(O)c21` [Compound 49, 1-fluoro-7,9-dihydroxy-10,11-dihydrodibenz[b,f]oxepin-10-one], the inhibition at 30 µM is no less than 50%.

Consider `CC(=O)Nc1ccc2c(c1)CC(=O)c1c(O)cc(O)cc1O2` [Compound 94, N-acetyl-2-amino-7,9-dihydroxy-10,11-dihydrodibenzo[b,f]oxepin-10-one], for which the inhibition at 30 µM is no less than 50%. For the compound `Cc1ccc2c(c1)CC(=O)c1cc(O)c(O)cc1S2` [Compound 104, 7,8-dihydroxy-2-methyl-10,11-dihydrodibenzo[b,f]thiepin-10-one], the inhibition at 30 µM is no less than 50%. On to `CC(=O)c1ccc2c(c1)CCc1c(O)cc(O)cc1O2` [Compound 95, 8-acetyl-10,11-dihydrodibenzo[b,f]oxepin-1,3-diol], for which the inhibition at 30 µM was no less than 50%. Regarding `Oc1cc(O)c2c(c1)Sc1ccccc1CC2` [Compound 81, 10,11-dihydrodibenzo[b,f]thiepin-1,3-diol], the inhibition at 30 µM was no less than 50%. For `O=C1Cc2ccc(Cl)c(Cl)c2Oc2cc(O)cc(O)c21` [Compound 27, 3,4-dichloro-7,9-dihydroxy-10,11-dihydrodibenz[b,f]oxepin-10-one], the inhibition at 30 µM was no less than 50%.

Regarding `CC(=O)c1ccc2c(c1)CCc1c(O)cc(O)cc1S2` [Compound 86, 8-acetyl-10,11-dihydrodibenzo[b,f]thiepin-1,3-diol], the inhibition at 30 µM was no less than 50%. `Nc1ccc2c(c1)CC(=O)c1c(O)cc(O)cc1O2` [Compound 71, 2-amino-7,9-dihydroxy-10,11-dihydrodibenz[b,f]oxepin-10-one]: the inhibition at 30 µM is no less than 50%.

Regarding `O=C1Cc2cc(C#CCO)ccc2Oc2cc(O)cc(O)c21` [Compound 114], the inhibition at 30 µM is no less than 50%. Same read-out and setting: the same measure for `O=C1Cc2ccccc2Oc2c(O)ccc(O)c21` [Compound 7, 6,9-dihydroxy-10,11-dihydrodibenz[b,f]oxepin-10-one]: no less than 50%; for `CSc1ccc2c(c1)CC(=O)c1c(O)cc(O)cc1O2` [Compound 108, 2-thiomethyl-7,9-dihydroxy-10,11-dihydrodibenzo[b,f]oxepin-10-one]: no less than 50%; for `Oc1cc(O)c2c(c1)Oc1c(Cl)cc(Cl)cc1CC2` [Compound 35, 6,8-dichloro-10,11-dihydrodibenz[b,f]oxepin-1,3-diol]: no more than 50%. The same measure, in the same setting: the same measure for `Oc1cc(O)c2c(c1)Oc1ccccc1CC2` [Compound 12, 10,11-dihydrodibenz[b,f]oxepin-1,3-diol]: no less than 50%; for `CCC(=O)c1c(O)cc(O)c2c1Sc1ccccc1CC2` [Compound 90, 4-propionyl-10,11-dihydrodibenzo[b,f]thiepin-1,3-diol]: no less than 50%; for `CCC(=O)c1ccc2c(c1)CCc1c(O)cc(O)cc1S2` [Compound 91, 8-propionyl-10,11-dihydrodibenzo[b,f]thiepin-1,3-diol]: no less than 50%. Still for that read-out and setting: the same measure for `CC(=O)c1c(O)c2c(c(C(C)=O)c1O)Sc1ccccc1CC2` [Compound 84, 2,4-diacetyl-10,11-dihydrodibenzo[b,f]thiepin-1,3-diol]: no less than 50%.
